According to PMC7224190, “Pharmacological inhibition of PRMT7 links arginine monomethylation to the cellular stress response” (Nature Communications, 2020):

Molecular target: T1, NSD3 (Homo sapiens, UniProt Q9BZ95)
T1 sequence (Q9BZ95 1-1437): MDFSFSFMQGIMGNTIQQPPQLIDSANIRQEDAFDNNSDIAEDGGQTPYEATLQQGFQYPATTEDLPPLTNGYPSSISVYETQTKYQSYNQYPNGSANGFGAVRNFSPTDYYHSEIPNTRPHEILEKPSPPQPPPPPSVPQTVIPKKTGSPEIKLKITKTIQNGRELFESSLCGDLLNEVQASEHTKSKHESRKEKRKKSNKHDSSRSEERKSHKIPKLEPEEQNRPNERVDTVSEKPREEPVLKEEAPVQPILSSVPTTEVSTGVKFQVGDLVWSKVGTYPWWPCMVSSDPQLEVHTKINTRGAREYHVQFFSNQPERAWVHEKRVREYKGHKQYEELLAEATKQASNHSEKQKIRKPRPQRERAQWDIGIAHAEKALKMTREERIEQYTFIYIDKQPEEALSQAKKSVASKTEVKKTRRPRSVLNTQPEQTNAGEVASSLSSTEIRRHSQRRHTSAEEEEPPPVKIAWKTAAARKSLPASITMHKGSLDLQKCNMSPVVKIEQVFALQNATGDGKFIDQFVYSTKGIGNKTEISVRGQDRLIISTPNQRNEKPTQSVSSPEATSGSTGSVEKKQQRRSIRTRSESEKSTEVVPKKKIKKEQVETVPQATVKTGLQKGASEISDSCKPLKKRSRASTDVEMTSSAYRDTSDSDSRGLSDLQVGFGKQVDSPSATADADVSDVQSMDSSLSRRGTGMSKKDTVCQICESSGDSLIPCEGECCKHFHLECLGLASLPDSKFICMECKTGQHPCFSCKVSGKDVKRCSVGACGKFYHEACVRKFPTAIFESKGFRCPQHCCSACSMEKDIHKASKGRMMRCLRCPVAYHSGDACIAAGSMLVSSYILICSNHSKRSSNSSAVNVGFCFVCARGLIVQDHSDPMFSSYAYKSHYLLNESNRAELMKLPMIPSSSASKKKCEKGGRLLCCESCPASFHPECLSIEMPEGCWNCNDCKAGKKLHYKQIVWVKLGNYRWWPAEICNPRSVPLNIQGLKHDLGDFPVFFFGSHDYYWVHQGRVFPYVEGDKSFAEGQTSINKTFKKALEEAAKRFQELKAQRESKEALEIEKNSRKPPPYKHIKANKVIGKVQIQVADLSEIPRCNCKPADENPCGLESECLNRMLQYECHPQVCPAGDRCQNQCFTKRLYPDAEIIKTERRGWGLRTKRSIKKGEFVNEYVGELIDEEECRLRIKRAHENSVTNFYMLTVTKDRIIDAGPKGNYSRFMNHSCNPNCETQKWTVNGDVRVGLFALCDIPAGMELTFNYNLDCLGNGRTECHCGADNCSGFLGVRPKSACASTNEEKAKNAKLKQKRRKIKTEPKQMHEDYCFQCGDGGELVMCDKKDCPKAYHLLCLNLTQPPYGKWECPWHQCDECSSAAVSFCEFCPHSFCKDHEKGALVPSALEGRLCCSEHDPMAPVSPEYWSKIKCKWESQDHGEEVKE
Assay: biochemical
Set-up: radiometric methyltransferase selectivity assay with tritiated SAM, per cent activity
Settings: read-out: % of control remaining
Method: The methyltransferase selectivity was assessed at two compound concentrations of 1 and 10 μM by radiometric assays using tritiated-SAM. For methyltransferases: MLL1, MLL3, EZH1 (PRC2), and EZH2 (PRC2), G9a, GLP, SUV39H1, SUV39H2, SUV420H1, SUV420H2, SETD2, SETD8, SETDB1, SETD7, PRMT1, PRMT3, PRMT4, PRMT5/ MEP50 complex, PRMT6, PRMT7, PRMT8, PRMT9, PRDM9, SMYD2, SMYD3, DNMT1, and BCDIN3D the incorporation of a tritium-labeled methyl group into biotinylated substrate was monitored using scintillation proximity assay (SPA). Briefly, a 10 μL reaction containing ^3H-SAM and substrate at concentrations close to the apparent Km values for each enzyme (balanced conditions) was prepared. The reactions were quenched with 10 μL of 7.5 M guanidine hydrochloride; 180 μL of 20 mM Tris buffer (pH 8.0) were added, and the mixture was transferred to a 96-well FlashPlate and incubated for 1 h. The counts per minute (CPM) was measured on a TopCount plate reader. The CPM in the absence of compound or enzyme was defined as 100% activity and background (0%), respectively, for each dataset[74]–[76]. Selectivity of SGC8158 against 342 kinases was evaluated in a kinase panel TR-FRET assay at 1 and 0.1 μM compound in duplicates as described before. Briefly, tagged kinases were incubated with compound and staurosporine-based fluorescent probe where the binding was detected using Tb conjugated anti-tag antibody energy transfer to the probe. Excitation wavelength was 337 nm and fluorescent emission signal was measured for Tb (486 nm) and fluorescent probe (BODIPY, 515 nm). Specific and non-specific binding was determined in the absence and presence of unlabeled staurosporine.

| Compound | remaining activity at 1 µM [%] | remaining activity at 10 µM [%] |
| --- | --- | --- |
| CC1(C)O[C@@H]2[C@H](O1)[C@@H](CSCCCCNCc1cccc(-c3ccc(Cl)cc3)c1)O[C@H]2n1cnc2c(N)ncnc21 [SGC8158N] | 100 | 97 |
| Nc1ncnc2c1ncn2[C@@H]1O[C@H](CSCCCCNCc2cccc(-c3ccc(Cl)cc3)c2)[C@@H](O)[C@H]1O [SGC8158] | 97 | 95 |
